Experimental data: patent US9801854B1, “Slow release formulations of cell cycle regulators and anti-cancer agents for local treatment of solid cancer” (THERACOAT LTD., priority 2014, dated 2017)
Like-named read-outs stand apart in the source and are kept apart here.

What was measured:
Assay type in all cases: cell-based, human
[1] = system: UM-UC-3 cells; assay: XTT cytotoxicity assay; conditions: for viability at 1000 µM: Homo sapiens, 1 mM HU 20 hours, wash, untreated cells = 100%; for EC50: read-out: EC50 (cell viability)
Experimental: Cells were washed in media to inactivate trypsin before reseeding or analysis.
Hydroxyurea concentrations were selected based upon concentration ranges known in the art.
XTT assay for cytotoxicity was then performed and plates were analyzed in an ELISA reader at a wave length of 490 nm.
Cells were pretreated with 1 mM HU (or DMSO-vehicle control) for 20 hours. […] The percentage of viable cells presented was calculated from untreated cells with viability of 100%.
UM-UC-3 cells were cultured in 96 well microculture plates. Cells were pretreated with 1 mM HU (or DMSO-vehicle control) for 20 hours. Cells were then washed. […] The percentage of viable cells presented was calculated from untreated cells with viability of 100%.
The methods used were as described in the other examples. Briefly, UM-UC-3 cells were cultured in 96 well microculture plates. Cells were pretreated with 1 mM HU (or DMSO-vehicle control) for 2 hours. […] The percentage of viable cells presented in the figures and table was calculated from untreated cells with viability of 100%.

[2] = system: UM-UC-3 cells; assay: Cell cycle analysis by flow cytometry (PI staining) after HU exposure and withdrawal; conditions: 1 mM HU for 20 hours, wash, 2-10 hours without drug, majority in S phase 4 to 8 hours after wash
Experimental: (§1) The human bladder cancer cell lines, UM-UC-3 and RT-4, were obtained from the ATCC and grown in RPMI 1640 medium (Gibco) supplemented with 10% v/v fetal calf serum (Gibco), 100 U/ml penicillin and 100 µg/ml streptomycin (Biological Industries). Cells were grown at 37° C., 5% CO2 in a humidified atmosphere and harvested using 0.25% w/v trypsin, 0.02% w/v EDTA. Cells were washed in media to inactivate trypsin before reseeding or analysis. A LSRII Flow cytometer or Cyan Flow Cytometer were used for determining DNA content and cell cycle distribution of UM-UC-3 and RT-4 cells. Cells were seeded in 6 well plates (10^6 cells/well) and incubated overnight. […] When sequential treatment was done, the second drug was administered immediately or 2-48 hours following the wash of the 1st treatment. The 2nd treatment was then applied for additional 2-48 hrs before analysis. […] PI staining was identified by using the red fluorescence (585+/−40 nm). In some experiments, cells harvested as for cell cycle determination were also stained with Annexin V or anti-activated Caspase-3 antibody for identifying apoptotic cells. Annexin V or activated Caspase-3 positive cells were identified using the green fluorescence (530+/−30 nm).

[3] = system: RT-4 cells; assay: as above; conditions: 1 mM HU for 20 hours, wash, 2-10 hours without drug, majority in S phase 4 to 8 hours after wash
Experimental: as §1

SMILES | viability at 1000 µM ([1]; UMUC3, Example 3: UM-UC-3, 20 μM MMC, XTT 24 hours after MMC addition) | viability at 1000 µM ([1]; UMUC3, Example 4: UM-UC-3, 2 hours delay, 10 μM MMC 8 hours, XTT 48 hours after MMC addition) | cell cycle arrest / synchronization in S phase [2] | cell cycle arrest / synchronization in S phase [3] | EC50 ([1]; Example 3 conditions: UM-UC-3, MMC 24 hours, XTT) | EC50 ([1]; Example 4 conditions: UM-UC-3, MMC 8 hours, XTT 48 hours after MMC addition)
NC(=O)NO [HU, Hydroxyurea] | 76.5% | 59.6% | cell cycle synchronization at the S phase | cell cycle synchronization at the S phase |  | 
CO[C@@]12[C@H](COC(N)=O)C3=C(C(=O)C(C)=C(N)C3=O)N1C[C@@H]1N[C@@H]12 [MMC, Mitomycin C] |  |  |  |  | ~20 µM | 10 µM
